Source: patent US20250287950A1, “FUNGICIDAL USE” (Adama Makhteshim Ltd., priority 2021, published 2025)

Legend:
[1] = test system: Mycosphaerella fijiensis (black sigatoka); assay: Black sigatoka open field trial in banana, 12 applications, leaves per plant (Example 8b); assay type: in vivo; settings: folpet 850 g a.i./ha
Description: To test fungicidal control of Mycosphaerella fijiensis, the trial was realized in open field. […] All treatments were applied in a water solution: no mineral oil added.
Experimental unit consisted of 9 banana plants surrounded by Musa textilis, a variety tolerant to Black Sigatoka, used as border plants. The trial followed a complete randomized design, each treatment was replicated three times.
Applications were done every 6 days. All treatments had 12 applications.
The total leaves per plant was evaluated. A high number of leaves at harvest translates to more capability keep the fruit in post-harvest.
Treatment response to black Sigatoka was evaluated using the Stover scale modified by Gauhl.
The statistical analysis was done with INFOSTAT program, using a multiple comparison test (LSD) for every parameter.

[2] = test system: Mycosphaerella fijiensis (black sigatoka); assay: Black sigatoka open field trial in banana, one application (Example 8a); assay type: in vivo
Protocol: To test for fungicidal control of Mycosphaerella fijiensis the trial was realized in open field. […] Each of the above treatments was applied once when plants were showing a disease infection of 5%. The treatments composed of 4 replicates. The experimental design was a randomized complete block design. Data was analyzed using an ANOVA at the 95% confidence interval.
The level of infection was determined based on the weighted average of infection (PPI) using the Stover scale modified by Gaulh on 5 plants per plot.

With `O=C1c2ccccc2C(=O)N1SC(Cl)(Cl)Cl` [folpet] the “number of leaves per plant in comparison to the untreated and the mancozeb standard (in words)” value [1] was “higher number of leaves per plant”, the “efficacy relative to the mancozeb reference product (in words)” value ([2]; dose of 750 g a.i./ha) was “comparable to the one provided by the reference product based on mancozeb” and the “control of black sigatoka disease (in words)” value ([2]; low doses of 500 and 625 g a.i./ha) was “good control”.
